In patent publication US7507760B2, “N-type calcium channel blockers” (Neuromed Pharmaceuticals Ltd., priority 2004, dated 2009):
Where two headings read alike, the source gives them in different places.

Tests used:
[1] = target: T1, rat brain N-type calcium channel subunits (α1B+α2δ+β1b cDNA subunits) (Rattus norvegicus, UniProt Q02294); experiment: N-type calcium channel block, whole cell patch clamp in HEK 293 cells; assay type: cell-based; conditions: holding potential −80 mV to +10 mV, 5 mM BaCl2
T1 construct: expressed in transfected cells; host or cells: HEK 293
T1 sequence (Q02294 whole entry): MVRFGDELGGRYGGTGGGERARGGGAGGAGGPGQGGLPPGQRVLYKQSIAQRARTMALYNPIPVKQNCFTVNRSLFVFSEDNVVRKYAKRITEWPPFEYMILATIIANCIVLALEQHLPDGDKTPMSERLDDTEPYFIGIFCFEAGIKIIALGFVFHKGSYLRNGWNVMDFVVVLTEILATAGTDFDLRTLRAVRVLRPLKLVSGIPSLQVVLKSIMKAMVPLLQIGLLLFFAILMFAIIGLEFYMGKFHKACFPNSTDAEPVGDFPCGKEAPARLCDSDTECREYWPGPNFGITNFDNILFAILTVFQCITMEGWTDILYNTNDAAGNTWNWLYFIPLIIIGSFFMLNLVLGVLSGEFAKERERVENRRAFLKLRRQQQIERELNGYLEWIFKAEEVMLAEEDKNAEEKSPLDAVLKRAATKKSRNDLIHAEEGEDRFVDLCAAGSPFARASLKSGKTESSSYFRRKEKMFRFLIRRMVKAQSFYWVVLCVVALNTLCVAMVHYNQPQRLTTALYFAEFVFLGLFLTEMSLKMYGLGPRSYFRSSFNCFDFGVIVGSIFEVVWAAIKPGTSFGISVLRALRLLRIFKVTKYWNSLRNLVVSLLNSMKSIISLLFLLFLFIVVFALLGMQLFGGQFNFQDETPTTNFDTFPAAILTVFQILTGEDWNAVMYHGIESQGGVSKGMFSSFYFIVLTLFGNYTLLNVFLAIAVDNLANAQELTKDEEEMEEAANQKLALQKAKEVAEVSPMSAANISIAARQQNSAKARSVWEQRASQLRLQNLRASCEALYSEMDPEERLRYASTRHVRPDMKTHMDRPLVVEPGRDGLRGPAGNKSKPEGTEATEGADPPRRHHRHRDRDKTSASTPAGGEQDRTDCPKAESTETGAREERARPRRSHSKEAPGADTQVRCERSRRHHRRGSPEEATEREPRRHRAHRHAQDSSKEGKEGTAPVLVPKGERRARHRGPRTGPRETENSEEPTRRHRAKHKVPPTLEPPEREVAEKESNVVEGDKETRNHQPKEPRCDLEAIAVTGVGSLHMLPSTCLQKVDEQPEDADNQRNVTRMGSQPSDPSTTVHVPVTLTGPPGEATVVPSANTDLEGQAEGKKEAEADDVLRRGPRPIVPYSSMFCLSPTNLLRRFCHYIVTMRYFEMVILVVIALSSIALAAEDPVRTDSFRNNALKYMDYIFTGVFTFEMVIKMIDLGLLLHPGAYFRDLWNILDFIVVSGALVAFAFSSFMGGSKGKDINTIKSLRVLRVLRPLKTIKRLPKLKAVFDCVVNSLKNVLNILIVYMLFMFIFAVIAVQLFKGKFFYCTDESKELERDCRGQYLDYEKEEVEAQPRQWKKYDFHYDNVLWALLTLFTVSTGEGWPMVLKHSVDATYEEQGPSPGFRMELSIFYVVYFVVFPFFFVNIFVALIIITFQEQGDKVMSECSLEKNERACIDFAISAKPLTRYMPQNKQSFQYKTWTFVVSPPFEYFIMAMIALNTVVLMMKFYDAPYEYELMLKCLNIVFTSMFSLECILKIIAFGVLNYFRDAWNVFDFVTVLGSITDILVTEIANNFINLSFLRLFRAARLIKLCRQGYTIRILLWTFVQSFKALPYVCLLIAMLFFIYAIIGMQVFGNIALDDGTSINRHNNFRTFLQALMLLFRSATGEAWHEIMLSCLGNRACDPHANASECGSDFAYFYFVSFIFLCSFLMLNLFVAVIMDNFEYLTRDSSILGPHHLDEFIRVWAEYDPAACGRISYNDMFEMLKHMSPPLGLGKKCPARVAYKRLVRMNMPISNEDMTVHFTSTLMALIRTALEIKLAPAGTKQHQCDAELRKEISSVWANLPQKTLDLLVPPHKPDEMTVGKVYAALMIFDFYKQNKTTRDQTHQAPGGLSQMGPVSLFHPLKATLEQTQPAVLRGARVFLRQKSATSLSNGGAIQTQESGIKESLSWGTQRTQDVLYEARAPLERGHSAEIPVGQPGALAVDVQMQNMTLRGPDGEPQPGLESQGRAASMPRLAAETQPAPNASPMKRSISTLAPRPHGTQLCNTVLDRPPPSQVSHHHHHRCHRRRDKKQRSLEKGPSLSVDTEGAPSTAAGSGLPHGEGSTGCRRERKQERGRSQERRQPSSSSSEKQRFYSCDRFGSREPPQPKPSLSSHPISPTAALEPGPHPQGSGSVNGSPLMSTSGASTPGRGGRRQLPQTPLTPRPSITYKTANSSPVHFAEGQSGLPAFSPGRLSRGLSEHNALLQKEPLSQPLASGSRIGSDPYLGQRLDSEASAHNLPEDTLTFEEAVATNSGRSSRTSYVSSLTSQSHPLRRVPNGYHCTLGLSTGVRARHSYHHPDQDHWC
T1 sequence (P54290 25-944 partner limits assumed): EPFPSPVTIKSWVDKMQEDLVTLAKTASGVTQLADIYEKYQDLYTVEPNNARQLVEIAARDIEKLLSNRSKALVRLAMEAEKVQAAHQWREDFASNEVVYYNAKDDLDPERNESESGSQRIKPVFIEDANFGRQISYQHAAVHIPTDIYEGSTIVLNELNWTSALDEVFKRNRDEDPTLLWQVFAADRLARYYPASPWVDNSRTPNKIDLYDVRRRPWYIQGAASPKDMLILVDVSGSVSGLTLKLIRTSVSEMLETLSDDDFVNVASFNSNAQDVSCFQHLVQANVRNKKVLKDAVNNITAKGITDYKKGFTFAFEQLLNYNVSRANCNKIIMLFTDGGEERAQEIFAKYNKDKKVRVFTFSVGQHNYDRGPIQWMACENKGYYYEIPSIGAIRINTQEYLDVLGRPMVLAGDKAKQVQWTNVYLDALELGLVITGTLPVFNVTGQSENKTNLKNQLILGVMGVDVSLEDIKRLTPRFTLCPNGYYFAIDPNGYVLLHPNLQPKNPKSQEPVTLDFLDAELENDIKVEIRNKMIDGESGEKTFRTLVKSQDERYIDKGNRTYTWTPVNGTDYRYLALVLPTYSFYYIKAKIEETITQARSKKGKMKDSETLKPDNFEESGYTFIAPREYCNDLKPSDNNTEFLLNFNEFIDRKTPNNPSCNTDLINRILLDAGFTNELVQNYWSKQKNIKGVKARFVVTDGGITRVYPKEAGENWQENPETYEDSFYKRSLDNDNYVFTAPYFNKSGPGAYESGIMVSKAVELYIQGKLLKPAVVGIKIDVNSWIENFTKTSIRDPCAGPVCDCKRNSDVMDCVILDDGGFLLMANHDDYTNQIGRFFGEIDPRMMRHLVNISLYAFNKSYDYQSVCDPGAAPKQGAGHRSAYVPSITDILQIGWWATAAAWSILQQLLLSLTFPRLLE
T1 sequence (P54290 945-1091 partner limits assumed): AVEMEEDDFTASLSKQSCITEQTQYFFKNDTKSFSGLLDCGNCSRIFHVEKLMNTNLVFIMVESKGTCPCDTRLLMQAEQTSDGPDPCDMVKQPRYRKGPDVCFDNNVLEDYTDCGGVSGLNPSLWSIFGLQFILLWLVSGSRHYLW
T1 sequence (P54283 whole entry partner): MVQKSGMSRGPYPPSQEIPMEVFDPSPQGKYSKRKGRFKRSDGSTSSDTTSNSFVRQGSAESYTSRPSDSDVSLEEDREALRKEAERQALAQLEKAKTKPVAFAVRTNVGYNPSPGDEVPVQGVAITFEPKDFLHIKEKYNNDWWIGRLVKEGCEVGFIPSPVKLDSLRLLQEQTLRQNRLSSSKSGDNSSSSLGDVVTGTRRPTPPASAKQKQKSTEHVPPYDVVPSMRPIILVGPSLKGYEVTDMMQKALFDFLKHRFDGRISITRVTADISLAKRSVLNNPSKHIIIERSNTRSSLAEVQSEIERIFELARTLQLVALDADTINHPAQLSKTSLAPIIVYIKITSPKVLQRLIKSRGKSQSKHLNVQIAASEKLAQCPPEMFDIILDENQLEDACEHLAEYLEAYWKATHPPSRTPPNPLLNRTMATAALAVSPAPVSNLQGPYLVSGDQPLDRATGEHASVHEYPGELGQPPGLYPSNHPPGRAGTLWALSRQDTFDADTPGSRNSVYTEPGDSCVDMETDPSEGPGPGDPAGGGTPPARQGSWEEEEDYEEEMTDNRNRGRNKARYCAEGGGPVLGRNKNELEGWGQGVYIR
Excerpt: (§1) Normalized dose-response curves were fit (Sigmaplot 4.0, SPSS Inc., Chicago, Ill.) by the Hill equation to determine IC50 values. Steady-state inactivation curves were plotted as the normalized test pulse amplitude following 5 s inactivating prepulses at +10 mV increments. Inactivation curves were fit (Sigmaplot 4.0) with the Boltzman equation, Ipeak (normalized)=1/(1+exp((V-Vh)z/25.6)), where V and Vh are the conditioning and half inactivation potentials, respectively, and z is the slope factor.
The methods of Example 11 were followed with slight modifications as will be apparent from the description below.
N-type calcium channel blocking activity was assayed in human embryonic kidney cells, HEK 293, stably transfected with the rat brain N-type calcium channel subunits (α1B+α2δ+β1b cDNA subunits). Briefly, cells were cultured in Dulbecco's modified eagle medium (DMEM) supplemented with 10% fetal bovine serum, 200 U/ml penicillin and 0.2 mg/ml streptomycin at 37° C. with 5% CO2. At 85% confluency, cells were split with 0.25% trypsin/1 mM EDTA and plated at 10% confluency on glass coverslips. At 12 hours the medium was. replaced and the cells transfected using a standard calcium phosphate protocol and the appropriate calcium channel cDNAs. Fresh DMEM was supplied and the cells transferred to 28° C./5% CO2. Cells were incubated for 1 to 2 days to whole cell recording.
Whole cell patch clamp experiments were performed using an Axopatch 200B amplifier (Axon Instruments, Burlingame, Calif.) linked to a personal computer equipped with pCLAMP software. The external and internal recording solutions contained, respectively, 5 mM BaCl2, 10 mM MgCl2, 10 mM HEPES, 40 mM TEACl, 10 mM glucose, 87.5 mM CsCl (pH 7.2) and 108 mM CsMS, 4 mM MgCl2, 9 mM EGTA, 9 mM HEPES (pH 7.2). Currents were typically elicited from a holding potential of −80 mV to +10 mV using Clampex software (Axon Instruments). Typically, currents were first elicited with low frequency stimulation (0.067 Hz) and allowed to stabilize prior to application of the compounds. The compounds were then applied during the low frequency pulse trains for two to three minutes to assess tonic block, and subsequently the pulse frequency was increased to 0.2 Hz to assess frequency dependent block. Data were analyzed using Clampfit (Axon Instruments) and SigmaPlot 4.0 (Jandel Scientific).

[2] = target: T2, human α1G T-type channels (Homo sapiens, UniProt O43497); experiment: Block of α1G T-type channels, whole-cell patch clamp in HEK cells; assay type: cell-based; conditions: test pulse −40 mV
T2 construct: expressed in transfected cells
Method: Standard patch-clamp techniques were employed to identify blockers of T-type currents. Briefly, previously described HEK cell lines stably expressing human α1G T-type channels were used for all the recordings (passage #: 4-20, 37° C., 5% CO2). To obtain T-type currents, plastic dishes containing semi-confluent cells were positioned on the stage of a ZEISS AXIOVERT S100 microscope after replacing the culture medium with external solution (Table 3). Whole-cell patches were obtained using pipettes (borosilicate glass with filament, O.D.: 1.5 mm, I.D.: 0.86 mm, 10 cm length), fabricated on a SUTTER P-97 puller with resistance values of ˜5 MΩ (Table 4 ).
T-type currents were reliably obtained by using two voltage protocols: “non-inactivating”, and “inactivation”. In the non-inactivating protocol, the holding potential is set at −110 mV and with a pre-pulse at −100 mV for 1 second prior to the test pulse at −40 mV for 50 ms. In the inactivation protocol, the pre-pulse is at approximately −85 mV for 1 second, which inactivates about ^15% of the T-type channels.
Test compounds were dissolved in external solution, 0.1-0.01% DMSO. After ˜10 min rest, they were applied by gravity close to the cell using a WPI microfil tubing. The “non-inactivated” pre-pulse was used to examine the resting block of a compound. The “inactivated” protocol was employed to study voltage-dependent block. However, the initial data shown below were mainly obtained using the non-inactivated protocol only. IC50 values are shown for various compounds of the invention in Table 5.

[3] = system: rat formalin model (paw flinches); experiment: Formalin-induced pain model; assay type: in vivo; conditions: 30 mg/kg IP, 10 minutes prior to formalin, saline control=100%
Method: […] The compounds were reconstituted to stock solutions of approximately 10 mg/ml in propylene glycol. Eight Holtsman male rats of 275-375 g size were randomly selected per test article.
The following study groups in Table 6 were used, with test article, vehicle control (propylene glycol) and saline delivered intraperitoneally (IP):
Prior to initiation of drug delivery, baseline behavioral and testing data were taken.
On the morning of testing, a small metal band (0.5 g) was loosely placed around the right hind paw. The rat was placed in a cylindrical Plexiglas chamber for adaptation a minimum of 30 minutes. Test Article or Vehicle Control Article was administered 10 minutes prior to formalin injection (50 μl of 5% formalin) into the dorsal surface of the right hindpaw of the rat. The animal was then placed into the chamber of the automated formalin apparatus where movement of the formalin injected paw was monitored and the number of paw flinches tallied by minute over the next 60 minutes (Malmberg, A. B., supra).
Results are presented as Maximum Possible Effect±SEM, where saline control=100% (Table 7)

[4] = target: T3, P/Q-type channels (α1A+α2δ+β1b cDNA subunits) (Homo sapiens, UniProt O00555); experiment: Selectivity for N-type over P/Q-type channels, whole cell patch recordings in HEK 293 cells; assay type: cell-based
T3 construct: expressed in transfected cells; host or cells: HEK 293 (human embryonic kidney cells)
Method: (§2) Calcium channel blocking activity was measured using whole cell patch recordings on human embryonic kidney cells transiently expressing rat α1B+α2δ+β1b channels (N-type channels) with 5 mM barium as a charge carrier. Channel block was also measured in P/Q-type channels (α1A+α2δ+β1b cDNA subunits) and L-type channels (α1C+α2δ+β1b cDNA subunits).
(§3) HEK 293 Host cells (ATCC# CRL 1573) were grown in standard DMEM medium supplemented with 2 mM glutamine and 10% fetal bovine serum. HEK 293 cells were transfected by a standard calcium-phosphate-DNA coprecipitation method using the rat α1B+β1b+α2δ N-type calcium channel subunits in a vertebrate expression vector (for example, see Current Protocols in Molecular Biology).
(§4) After an incubation period of 24 to 72 hours, the culture medium was removed and replaced with external recording solution (see below). Whole cell patch clamp experiments were performed using an Axopatch 200B amplifier (Axon Instruments, Burlingame, Calif.) linked to an IBM compatible personal computer equipped with pCLAMP software. Borosilicate glass patch pipettes (Sutter Instrument Co., Novato, Calif.) were polished (Microforge, Narishige, Japan) to a resistance of about 4 MΩ when filled with cesium methanesulfonate internal solution (composition in MM: 109 CsCH3 SO4, 4 MgCl2, 9 EGTA, 9 HEPES, pH 7.2). Cells were bathed in 5 mM Ba^++ (in mM: 5 BaCl2, 1 MgCl2, 10 HEPES, 40 tetraethylammonium chloride, 10 glucose, 87.5 CsCl pH 7.2). Current data shown were elicited by a train of 100 ms test pulses at 0.066 Hz from −100 mV and/or −80 mV to various potentials (min. −20 mV, max. +30 mV). Drugs were perfused directly into the vicinity of the cells, using a microperfusion system.
as §1
(§5) The same protocol was followed for cell lines expressing P/Q-type channels and L-type channels.

[5] = target: T4, L-type channels (α1C+α2δ+β1b cDNA subunits) (Homo sapiens, UniProt Q13936); experiment: Selectivity for N-type over L-type channels, whole cell patch recordings in HEK 293 cells; assay type: cell-based
T4 construct: expressed in transfected cells; host or cells: HEK 293 (human embryonic kidney cells)
Method: as §2, §3, §4, §1, §5

[6] = frequency dependent block, pulse frequency 0.2 Hz, read-out: IC50 at 0.2 Hz
[7] = tonic block, low frequency stimulation 0.067 Hz, read-out: IC50 at 0.067 Hz
[8] = −80 mV (inactivation protocol), read-out: IC50 at −80 mV
[9] = −100 mV (non-inactivating protocol), read-out: IC50 at −100 mV

| IC50 [1, 6] | IC50 [1, 7] | IC50 [2, 8] | IC50 [2, 9] | selectivity for N-type over P/Q-type channels [4] | selectivity for N-type over L-type channels [5] | IC50 at −80 mV ([2]; −80 mV (inactivation protocol)) | IC50 at −100 mV ([2]; −100 mV (non-inactivating protocol)) | SMILES | Maximum Possible Effect ± SEM, Phase I ([3]; Phase I) | Maximum Possible Effect ± SEM, Phase II ([3]; Phase II) | Maximum Possible Effect ± SEM, Phase IIA ([3]; Phase IIA) |
| --- | --- | --- | --- | --- | --- | --- | --- | --- | --- | --- | --- |
| 601 nM | 1030 nM | 926 nM | 2200 nM |  |  |  |  | CN(C(=O)NC(c1ccccc1)c1ccccc1)[C@H]1CCN(C(c2ccccc2)c2ccccc2)C1 [Compound P16, (S)-3-Benzhydryl-1-(1-benzhydryl-pyrrolidin-3-yl)-1-methyl-urea] |  |  |  |
| 62 nM | 93 nM | 390 nM | 230 nM | approximately 12 fold | greater than 5000 fold |  |  | COc1c(C(C)(C)C)cc(C(=O)N(C)[C@H]2CCN(C(=O)CCCCC(c3ccc(F)cc3)c3ccc(F)cc3)C2)cc1C(C)(C)C [Compound P4, (S)-N-{1-[6,6-Bis-(4-fluoro-phenyl)-hexanoyl]-pyrrolidin-3-yl}-3,5-di-tert-butyl-4-methoxy-N-methyl-benzamide] | 50 ± 10% | 51 ± 10% | 42 ± 13% |
| 252 nM | 366 nM | 99 nM | 609 nM |  |  |  |  | CN(C(=O)CN(c1ccccc1)c1ccccc1)[C@H]1CCN(C(c2ccccc2)c2ccccc2)C1 [Compound P14, (S)-N-(1-Benzhydryl-pyrrolidin-3-yl)-2-diphenylamino-N-methyl-acetamide] |  |  |  |
| 285 nM | 362 nM | 335 nM | 647 nM |  |  |  |  | CN(C(=O)CC(c1ccccc1)c1ccccc1)[C@@H]1CCN(C(c2ccccc2)c2ccccn2)C1 (stereo partly drawn) [Compound P12, (R)-N-Methyl-3,3-diphenyl-N-[1-(phenyl-pyridin-2-yl-methyl)-pyrrolidin-3-yl]-propionamide] |  |  |  |
| 302 nM | 386 nM | 374 nM | 1800 nM |  |  |  |  | CN(C(=O)CC(c1ccccc1)c1ccccc1)[C@@H]1CCN(C(c2ccccc2)c2cccnc2)C1 (stereo partly drawn) [Compound P11, (R)-N-Methyl-3,3-diphenyl-N-[1-(phenyl-pyridin-3-yl-methyl)-pyrrolidin-3-yl]-propionamide] |  |  |  |
| 617 nM | 1300 nM | 160 to 2400 nM | 150 to 4500 nM |  |  |  |  | CN(C(=O)CC(c1ccccc1)c1ccccc1)[C@@H]1CCN(Cc2ccccn2)C1 [Compound P9, (R)-N-Methyl-3,3-diphenyl-N-(1-pyridin-2-ylmethyl-pyrrolidin-3-yl)-propionamide] |  |  |  |
| 987 nM | 3000 nM |  |  |  |  | No block | No block | CN(C(=O)CC(c1ccccc1)c1ccccc1)[C@@H]1CCN(Cc2cccnc2)C1 [Compound P8, (R)-N-Methyl-3,3-diphenyl-N-(1-pyridin-3-ylmethyl-pyrrolidin-3-yl)-propionamide] |  |  |  |
| 216 nM | 287 nM | 115 nM | 692 nM |  |  |  |  | CN(CC(=O)N(c1ccccc1)c1ccccc1)[C@H]1CCN(C(c2ccccc2)c2ccccc2)C1 [Compound P15, (S)-2-[(1-Benzhydryl-pyrrolidin-3-yl)-methyl-amino]-N,N-diphenyl-acetamide] |  |  |  |
| 44 nM | 112 nM | 364 nM | 910 nM |  |  |  |  | CN(C(=O)CC(c1ccccc1)c1ccccc1)[C@@H]1CCN(C(c2ccccc2)c2ccccc2)C1 [Compound P3, (R)-N-(1-Benzhydryl-pyrrolidin-3-yl)-N-methyl-3,3-diphenyl-propionamide] |  |  |  |
| 365 nM | 638 nM | 455 nM | 1160 nM |  |  |  |  | CN(C(=O)CC(c1ccccc1)c1ccccc1)[C@H]1CCN(C(c2ccccc2)c2ccccc2)C1 [Compound P6, (S)-N-(1-Benzhydryl-pyrrolidin-3-yl)-N-methyl-3,3-diphenyl-propionamide] |  |  |  |
| 520 nM | 714 nM | 882 nM | 3460 nM |  |  |  |  | CN(C(=O)CC(c1ccccc1)c1ccccc1)[C@@H]1CCN(C(c2ccccc2)c2ccncc2)C1 (stereo partly drawn) [Compound P10, (R)-N-Methyl-3,3-diphenyl-N-[1-(phenyl-pyridin-4-yl-methyl)-pyrrolidin-3-yl]-propionamide] |  |  |  |
| 471 nM | 913 nM | 488 nM | 5000 nM |  |  |  |  | CN(C(=O)CC(c1ccccc1)c1ccccc1)[C@H]1CCN(Cc2ccncc2)C1 [Compound P13, (S)-N-Methyl-3,3-diphenyl-N-(1-pyridin-4-ylmethyl-pyrrolidin-3-yl)-propionamide] |  |  |  |
